Results reported in ChEMBL document CHEMBL3137667, “[Drug-induced liver injury; fourteenth updated edition of the bibliographic database of liver injuries and related drugs]” (Gastroenterol Clin Biol, 2004).

Assays:
[1] = human
[2] = human; remark: listed apart in the source
[3] = human; remark: listed apart in the source
[4] = human; remark: listed apart in the source
[5] = human; remark: listed apart in the source
[6] = Highest frequency of moderate liver toxicity observed during clinical trials, expressed as a percentage. [column '% BIOL' in source]; settings: human
[7] = Highest frequency of acute liver toxicity observed during clinical trials, expressed as a percentage. [column '% AIGUE' in source]; settings: human
[8] = human; remark: listed apart in the source
[9] = human; remark: listed apart in the source
[10] = human; remark: listed apart in the source
[11] = human, serum
[12] = Proposed mechanism(s) of liver damage. [column 'MEC' in source]; settings: human
[13] = human; remark: listed apart in the source
[14] = Times to onset, minimal and maximal, observed in the indexed observations. [column 'DELAI' in source]; settings: human
[15] = human, serum, 4383 h
[16] = human, serum; remark: listed apart in the source
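Wherever Hepatotoxicity (association with vascular disease) is given: count of indexed literature references reporting vascular liver injury in humans, e.g. peliosis hepatitis, hepatic veno-occlusive disease or Budd-Chiari syndrome.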
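Wherever Hepatotoxicity (benign tumour) is given: value is a count of indexed literature references citing a benign tumour confirmed by histopathology.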
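Wherever Hepatotoxicity (choleostasis) is given: human cholestatic liver injury, shown by histopathology or by peak ALT or AST elevation over alkaline phosphatase ratio below 2, value counts indexed literature reports.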
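Wherever Hepatotoxicity (chronic liver disease) is given: chronic liver injury confirmed by histopathology or persistently raised serum aminotransferase activity beyond 6 months, value given as the count of indexed literature references.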
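Wherever Hepatotoxicity (cirrhosis) is given: value is a count of indexed literature references reporting cirrhosis confirmed by histopathology.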
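Wherever Hepatotoxicity (cytolytic) is given: human cytolytic liver injury, shown by histopathology or by a ratio above 5 of peak ALT or AST elevation to alkaline phosphatase elevation, value counts indexed references.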
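Wherever Hepatotoxicity (granulomatous hepatitis) is given: value is a count of indexed literature references reporting granulomatous liver disease confirmed by histopathology.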
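Wherever Hepatotoxicity (malignant tumour) is given: malignant tumour confirmed by histopathology, value gives the count of indexed literature references reporting it.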
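Wherever Hepatotoxicity (severe hepatitis) is given: human clinical data: severe hepatitis, meaning potentially life-threatening liver failure or clinically observed cases, the value counts how many indexed literature references report it.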
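Wherever Hepatotoxicity (steatosis) is given: steatosis confirmed by histopathology, value is the count of indexed references.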

Compound	Hepatotoxicity (steatosis) [1]	Hepatotoxicity (association with vascular disease) [2]	Hepatotoxicity (choleostasis) [3]	Hepatotoxicity (granulomatous hepatitis) [4]	Hepatotoxicity (malignant tumour) [5]	Hepatotoxicity (moderate) [6]	Hepatotoxicity (acute) [7]	Hepatotoxicity (cirrhosis) [8]	Hepatotoxicity (benign tumour) [9]	Hepatotoxicity (cytolytic) [10]	Hepatotoxicity (acute) [11]	Hepatotoxicity (mechanism) [12]	Hepatotoxicity (severe hepatitis) [13]	Hepatotoxicity (time to onset) [14]	Hepatotoxicity (chronic liver disease) [15]	Hepatotoxicity (moderate) [16]	Hepatotoxicity (moderate) ([6]; Liver)	Hepatotoxicity (acute) ([7]; Liver)	Hepatotoxicity (severe hepatitis) ([13]; Liver)
CC(C(=O)O)c1ccc2c(c1)[nH]c1ccc(Cl)cc12 (stereo not given) [CARPROFEN]	0	0	0	0	0	56.3%	0%	0	0	0	0	Dose-dependant	0	1 week - 1 month	0	5	–	–	–
CC1=C(C(=O)O)N2C(=O)[C@@H](NC(=O)[C@H](N)c3ccc(O)cc3)[C@H]2SC1 [CEFADROXIL]	0	0	2	0	0	–	–	0	0	1	2	Allergic	–	4 days - 6 days	0	1	3.1%	0%	0
Cc1nnc(SCC2=C(C(=O)O)N3C(=O)[C@@H](NC(=O)Cn4cnnn4)[C@H]3SC2)s1 [CEFAZOLIN]	0	0	1	0	0	–	–	0	0	1	2	Allergic	–	1 week - 25 days	0	11	42.9%	0%	0
O=C(O)C1=C(CSc2nnnn2CS(=O)(=O)O)CS[C@@H]2[C@H](NC(=O)[C@H](O)c3ccccc3)C(=O)N12 [CEFONICID]	0	0	0	0	0	29%	5.9%	0	0	0	2	Allergic	0	4 days - 20 days	0	10	–	–	–
CO/N=C(\C(=O)N[C@@H]1C(=O)N2C(C(=O)OC(C)OC(C)=O)=C(COC(N)=O)CS[C@H]12)c1ccco1 (stereo not given in full) [CEFUROXIME AXETIL]	0	0	1	0	0	20%	0.2%	0	0	0	2	Allergic	0	4 days	0	31	–	–	–
CO/N=C(\C(=O)N[C@@H]1C(=O)N2C(C(=O)O)=C(COC(N)=O)CS[C@H]12)c1ccco1 [CEFUROXIME]	0	0	0	0	0	29.1%	0%	0	0	1	1	Allergic	1	2 days	0	8	–	–	–
CC1=C(C(=O)O)N2C(=O)[C@@H](NC(=O)[C@H](N)c3ccccc3)[C@H]2SC1 [CEPHALEXIN ANHYDROUS]	0	0	4	1	0	4.8%	0%	0	0	3	6	Allergic	2	1 week - 9 days	0	4	–	–	–
O=C1CN=C(c2ccccc2Cl)c2cc([N+](=O)[O-])ccc2N1 [CLONAZEPAM]	0	0	0	0	0	–	–	0	0	2	2	Toxic Metabolite	–	3 weeks - 4 months	0	0	0%	0%	1
CN(C)/N=N/c1[nH]cnc1C(N)=O [DACARBAZINE]	0	24	2	0	0	50%	0%	0	0	4	5	Allergic, Toxic	6	1 cure - 4 cures	0	12	–	–	–
CN(C)[C@@H]1C(O)=C(C(N)=O)C(=O)[C@@]2(O)C(O)=C3C(=O)c4c(O)ccc(Cl)c4[C@@H](O)[C@H]3C[C@@H]12 [DEMECLOCYCLINE]	1	0	0	0	0	0%	0%	0	0	1	1	Dose-dependant	2	2 days - 2 months	0	0	–	–	–
